The values below come from patent US10532103B2, “Degradation of cyclin-dependent kinase 9 (CDK9) by conjugation of CDK9 inhibitors with E3 ligase ligand and methods of use” (Dana-Farber Cancer Institute, Inc., priority 2016, dated 2020).

“Also recorded” adds a separate entry of the source.

Holding throughout (format): cell-based
One test addresses T1, CDK13 (Homo sapiens, UniProt Q14004).
T1 construct: endogenous in cells; host or cells: Jurkat cells
The test is described as follows: Enzyme degradation assay (western blot) in Jurkat cells, CDK13. The method, then: (§1) Cells are treated with a control or a bifunctional compound of the application alone or in combination with an agent that blocks proteasomal degradation at a single concentration or various concentrations. After treatment, cells are washed and harvested by resuspending in buffer and lysed on ice 30 minutes. Lysates are then cleared by centrifugation. Samples are boiled and equal amount of protein is loaded onto polyacrylamide gel. The gel is transferred to nitrocellulose and blotted for CDK13, CDK12, CDK9, CDK7, CDK2, CDK1, PolII serine 2 phosphorylation or Tubulin.
(§2) Jurkat cells were treated with DMSO (as a control) or 500 nM of SNS-032 or 500 nM of a bifunctional compound of the application (i.e., Compound I-1, Compound I-2, or Compound I-3) or in combination with 5 μM MG132 for 6 hours. MGl32 is an agent that blocks proteasomal degradation. After treatment, cells were washed and harvested by resuspending in RIPA lysis buffer ([…] Tris-HCl, […] NaCl, 1% NP-40, 0.5% sodium deoxycholate, and 1% SDS, pH 7.4, protease and phosphatase inhibitors) and lysed on ice 30 minutes. Lysates were cleared by centrifugation at 15,000 rpm 30 minutes. Samples were boiled and equal amounts of protein were loaded onto gel. The gel was transferred to nitrocellulose and blotted for CDK13, CDK12, CDK9, CDK7, CDK2, CDK1, or tubulin.
(§3) Alternatively, Jurkat cells were treated with DMSO (as a control) or various concentrations of Compound I-3 alone (about 312 nm, 625 nm, 1.25 uM, 2.5 uM, and 5 uM) or with 5 μM MG132. After treatment, cells were washed and harvested by resuspending in RIPA lysis buffer ([…] Tris-HCl, […] NaCl, 1% NP-40, 0.5% sodium deoxycholate, and 1% SDS, pH 7.4, protease and phosphatase inhibitors) and lysed on ice 30 minutes. Equal amount of protein was loaded onto gel and blotted for CDK13, CDK9, CDK7, CDK2, CDK1, or tubulin.
(§4) Jurkat cells were treated with 500 nM of Compound I-3 for 15 minutes, 30 minutes, 1 hour, 2 hours, 3 hours, 4 hours, or 6 hours or DMSO control for 6 hours. After treatment, cells were washed and harvested by resuspending in RIPA lysis buffer ([…] Tris-HCl, […], 1% NP-40, 0.5% sodium deoxycholate, and 1% SDS, pH 7.4, protease and phosphatase inhibitors) and lysed on ice 30 minutes. Equal amount of protein was loaded onto gel and blotted for CDK13, CDK12, CDK9, or tubulin.
For orientation: Immunoblotting shows a protein as a band on a membrane.

The target of another test is T2, CDK12 (Homo sapiens, UniProt Q9NYV4).
T2 construct: endogenous in cells; host or cells: Jurkat cells
T2 sequence (Q9NYV4 whole entry): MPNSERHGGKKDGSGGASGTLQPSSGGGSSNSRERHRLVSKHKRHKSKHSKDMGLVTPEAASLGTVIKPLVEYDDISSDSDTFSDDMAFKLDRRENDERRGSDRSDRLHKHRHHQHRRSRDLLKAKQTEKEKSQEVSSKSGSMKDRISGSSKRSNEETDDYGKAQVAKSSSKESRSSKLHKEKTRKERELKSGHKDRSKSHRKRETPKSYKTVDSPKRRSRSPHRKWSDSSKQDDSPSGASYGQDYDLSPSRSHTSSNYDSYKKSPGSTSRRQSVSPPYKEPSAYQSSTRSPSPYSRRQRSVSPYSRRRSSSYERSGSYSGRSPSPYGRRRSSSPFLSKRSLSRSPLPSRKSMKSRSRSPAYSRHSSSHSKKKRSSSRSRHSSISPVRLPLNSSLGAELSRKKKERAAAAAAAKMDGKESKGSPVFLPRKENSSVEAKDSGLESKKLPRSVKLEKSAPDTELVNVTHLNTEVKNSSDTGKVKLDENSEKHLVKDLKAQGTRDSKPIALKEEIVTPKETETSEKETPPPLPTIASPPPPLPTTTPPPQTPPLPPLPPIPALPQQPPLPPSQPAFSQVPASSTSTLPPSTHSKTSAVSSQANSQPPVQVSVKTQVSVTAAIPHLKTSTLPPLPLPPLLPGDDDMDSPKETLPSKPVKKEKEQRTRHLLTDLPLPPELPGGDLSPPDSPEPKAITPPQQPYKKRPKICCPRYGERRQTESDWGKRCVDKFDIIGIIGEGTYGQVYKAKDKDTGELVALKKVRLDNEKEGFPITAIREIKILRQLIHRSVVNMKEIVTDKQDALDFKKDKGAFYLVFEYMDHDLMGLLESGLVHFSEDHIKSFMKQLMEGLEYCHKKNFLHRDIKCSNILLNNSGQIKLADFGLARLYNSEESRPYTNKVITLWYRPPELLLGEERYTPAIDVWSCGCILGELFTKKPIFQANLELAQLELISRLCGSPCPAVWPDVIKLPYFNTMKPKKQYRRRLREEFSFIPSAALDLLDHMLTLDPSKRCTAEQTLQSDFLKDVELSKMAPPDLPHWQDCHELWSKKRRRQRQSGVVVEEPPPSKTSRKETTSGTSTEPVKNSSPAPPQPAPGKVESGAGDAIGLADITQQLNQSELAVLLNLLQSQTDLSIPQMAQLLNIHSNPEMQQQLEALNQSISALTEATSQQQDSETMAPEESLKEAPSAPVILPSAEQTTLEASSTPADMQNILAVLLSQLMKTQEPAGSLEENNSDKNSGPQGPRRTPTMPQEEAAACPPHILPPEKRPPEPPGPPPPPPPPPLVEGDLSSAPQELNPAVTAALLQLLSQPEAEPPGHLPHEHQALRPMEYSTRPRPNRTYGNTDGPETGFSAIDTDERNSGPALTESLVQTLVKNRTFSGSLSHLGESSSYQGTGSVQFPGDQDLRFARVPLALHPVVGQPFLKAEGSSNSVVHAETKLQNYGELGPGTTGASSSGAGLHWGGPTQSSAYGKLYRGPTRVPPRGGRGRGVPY
T2 sequence (O75909 whole entry partner): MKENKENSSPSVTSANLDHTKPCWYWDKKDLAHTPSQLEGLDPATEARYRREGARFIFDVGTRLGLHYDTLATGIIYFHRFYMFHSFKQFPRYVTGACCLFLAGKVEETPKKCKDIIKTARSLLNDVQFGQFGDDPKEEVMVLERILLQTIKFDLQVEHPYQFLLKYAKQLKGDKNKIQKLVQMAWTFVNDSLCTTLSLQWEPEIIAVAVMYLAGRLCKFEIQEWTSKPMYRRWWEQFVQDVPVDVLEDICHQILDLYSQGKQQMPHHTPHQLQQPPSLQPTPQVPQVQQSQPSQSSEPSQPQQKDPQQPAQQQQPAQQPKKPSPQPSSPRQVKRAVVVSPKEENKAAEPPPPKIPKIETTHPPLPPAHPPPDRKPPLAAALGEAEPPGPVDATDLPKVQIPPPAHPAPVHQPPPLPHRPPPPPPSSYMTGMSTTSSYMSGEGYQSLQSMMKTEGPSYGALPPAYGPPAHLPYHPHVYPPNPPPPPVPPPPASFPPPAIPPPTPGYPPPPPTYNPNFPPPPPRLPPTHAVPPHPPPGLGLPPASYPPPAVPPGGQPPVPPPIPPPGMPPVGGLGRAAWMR
The test is described as follows: Enzyme degradation assay (western blot) in Jurkat cells, CDK12. As to conditions: for degradation of CDK12: 6 hours. The protocol: as §1, §2, §4

The target of another test is T3, CDK9 (Homo sapiens, UniProt P50750).
T3 construct: endogenous in cells; host or cells: Jurkat cells
T3 sequence (P50750 whole entry): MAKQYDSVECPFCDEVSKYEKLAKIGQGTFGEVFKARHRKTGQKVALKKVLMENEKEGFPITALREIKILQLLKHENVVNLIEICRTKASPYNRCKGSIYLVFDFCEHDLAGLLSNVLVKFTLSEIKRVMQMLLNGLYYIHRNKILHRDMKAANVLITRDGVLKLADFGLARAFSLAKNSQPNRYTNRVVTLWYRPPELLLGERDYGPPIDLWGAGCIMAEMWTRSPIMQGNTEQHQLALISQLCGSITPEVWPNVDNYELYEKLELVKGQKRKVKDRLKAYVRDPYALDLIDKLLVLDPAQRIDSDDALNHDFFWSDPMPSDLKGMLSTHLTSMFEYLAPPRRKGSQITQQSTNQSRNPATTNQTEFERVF
T3 sequence (O60563 whole entry partner): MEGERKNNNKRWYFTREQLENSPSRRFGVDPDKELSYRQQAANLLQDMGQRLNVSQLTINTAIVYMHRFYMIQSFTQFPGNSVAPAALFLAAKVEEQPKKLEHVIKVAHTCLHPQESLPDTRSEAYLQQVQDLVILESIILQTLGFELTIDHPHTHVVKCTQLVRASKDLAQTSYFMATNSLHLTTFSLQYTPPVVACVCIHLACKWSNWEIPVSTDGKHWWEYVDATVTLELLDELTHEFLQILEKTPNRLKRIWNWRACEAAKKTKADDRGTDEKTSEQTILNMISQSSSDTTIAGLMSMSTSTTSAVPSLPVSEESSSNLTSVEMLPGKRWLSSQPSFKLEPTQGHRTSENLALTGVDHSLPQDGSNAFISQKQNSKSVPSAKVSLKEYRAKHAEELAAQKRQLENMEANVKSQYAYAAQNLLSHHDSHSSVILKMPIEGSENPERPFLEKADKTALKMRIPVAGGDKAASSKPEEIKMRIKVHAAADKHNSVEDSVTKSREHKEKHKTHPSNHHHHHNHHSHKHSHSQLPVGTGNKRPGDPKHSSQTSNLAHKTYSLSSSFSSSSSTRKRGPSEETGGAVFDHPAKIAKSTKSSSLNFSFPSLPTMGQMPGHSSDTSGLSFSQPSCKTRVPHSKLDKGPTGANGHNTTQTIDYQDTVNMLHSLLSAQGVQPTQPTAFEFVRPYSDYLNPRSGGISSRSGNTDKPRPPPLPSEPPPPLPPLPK
The test is described as follows: Enzyme degradation assay (western blot) in Jurkat cells, CDK9. The method, then:
as §1, §2, §3
(§5) Jurkat cells were treated with a DMSO (as a control) or various concentrations SNS-032 or Compound I-3 for 6 hours. After treatment, cells were washed and harvested by resuspending in RIPA lysis buffer ([…] Tris-HCl, […] NaCl, 1% NP-40, 0.5% sodium deoxycholate, and 1% SDS, pH 7.4, protease and phosphatase inhibitors) and lysed on ice 30 minutes. Equal amount of protein was loaded onto gel and blotted for […], CDK9, or tubulin.
as §4

The test system of test [1] is PolII serine 2 phosphorylation. The test is described as follows: Western blot for PolII serine 2 phosphorylation in Jurkat cells. Conditions: various concentrations, 6 hours. The method, then:
as §1, §5

In test [2] the test system is Molt4 cereblon null cells (CRBN−/−). The test is described as follows: Cell viability assay (celltiter glo), cereblon null cells. Conditions: cereblon knockout (CRBN−/−) Molt4 cells, titration, 72 hours. The protocol: (§6) Wild-type or cereblon null cells are treated with various concentrations of a bifunctional compound of the invention and allowed to grow. Cells are then assayed to determine cell viability by measuring the amount of ATP present, which is an indicator of cell metabolic activity. Results are graphed as relative luminescent values.
(§7) Molt4 wild-type or cereblon null cells were treated with a titration of a bifunctional compound of the invention (i.e., Compound I-1, Compound I-2, or Compound I-3) and allowed to grow for 72 hours. Cells were assayed using celltiter glo (Promega) to determine cell viability by measuring the amount of ATP present, which is an indicator of cell metabolic activity. Results are graphed as relative luminescent values.
For orientation: In ATP-based viability assays light output follows the ATP content of the culture.

The next test relates to Molt4 wild-type cells. Description: Cell viability assay (celltiter glo), wild-type cells. Conditions: wild-type (WT) Molt4 cells, titration, 72 hours. The method, then: as §6, §7

T1 sequence (Q14004 whole entry): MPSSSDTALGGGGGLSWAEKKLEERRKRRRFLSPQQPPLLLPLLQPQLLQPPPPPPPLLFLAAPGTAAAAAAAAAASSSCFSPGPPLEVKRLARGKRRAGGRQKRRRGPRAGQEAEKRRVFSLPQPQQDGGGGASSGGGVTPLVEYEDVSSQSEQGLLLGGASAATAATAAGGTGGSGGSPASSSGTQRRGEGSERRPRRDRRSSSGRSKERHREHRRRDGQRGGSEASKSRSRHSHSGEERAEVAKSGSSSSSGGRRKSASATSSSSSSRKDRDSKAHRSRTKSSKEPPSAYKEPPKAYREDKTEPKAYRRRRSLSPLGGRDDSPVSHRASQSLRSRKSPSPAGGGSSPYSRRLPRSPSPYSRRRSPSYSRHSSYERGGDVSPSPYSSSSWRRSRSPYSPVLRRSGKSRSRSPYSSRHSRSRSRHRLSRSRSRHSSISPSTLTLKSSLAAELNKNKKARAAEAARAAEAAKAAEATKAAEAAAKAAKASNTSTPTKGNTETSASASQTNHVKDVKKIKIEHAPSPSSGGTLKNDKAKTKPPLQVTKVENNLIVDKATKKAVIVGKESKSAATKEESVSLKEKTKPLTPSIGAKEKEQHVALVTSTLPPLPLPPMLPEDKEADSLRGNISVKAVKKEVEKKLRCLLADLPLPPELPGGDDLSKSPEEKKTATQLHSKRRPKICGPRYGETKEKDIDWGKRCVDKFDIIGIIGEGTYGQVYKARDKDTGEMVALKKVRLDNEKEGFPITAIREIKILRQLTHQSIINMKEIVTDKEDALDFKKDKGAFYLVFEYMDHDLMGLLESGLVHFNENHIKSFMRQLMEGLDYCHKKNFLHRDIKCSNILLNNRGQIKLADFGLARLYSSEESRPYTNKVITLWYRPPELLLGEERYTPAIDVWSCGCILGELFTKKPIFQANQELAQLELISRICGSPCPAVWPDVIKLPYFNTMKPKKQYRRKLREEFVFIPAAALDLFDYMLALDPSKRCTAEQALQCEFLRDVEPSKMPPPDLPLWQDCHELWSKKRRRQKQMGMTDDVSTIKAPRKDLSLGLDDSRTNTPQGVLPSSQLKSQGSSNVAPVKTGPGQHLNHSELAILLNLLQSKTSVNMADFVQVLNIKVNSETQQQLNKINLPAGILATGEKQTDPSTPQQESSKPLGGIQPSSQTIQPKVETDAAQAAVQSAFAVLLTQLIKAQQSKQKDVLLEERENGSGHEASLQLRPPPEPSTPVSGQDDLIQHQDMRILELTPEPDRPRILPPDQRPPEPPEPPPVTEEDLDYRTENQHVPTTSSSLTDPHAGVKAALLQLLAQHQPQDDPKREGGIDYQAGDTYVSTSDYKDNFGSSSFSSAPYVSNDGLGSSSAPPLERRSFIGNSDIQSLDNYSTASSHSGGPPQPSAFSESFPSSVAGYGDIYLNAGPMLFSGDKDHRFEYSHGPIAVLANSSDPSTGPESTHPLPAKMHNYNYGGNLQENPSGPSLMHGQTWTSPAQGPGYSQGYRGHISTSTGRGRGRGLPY
T1 sequence (O75909 whole entry partner): as the sequence (O75909 whole entry partner) above

`CC(C)(C)c1cnc(CSc2cnc(NC(=O)C3CCNCC3)s2)o1` [SNS032, N-(5-(((5-(tert-butyl)oxazol-2-yl)methyl)thio)thiazol-2-yl)piperidine-4-carboxamide, reference compound]: on CDK13 (500 nM, 6 hours), the “degradation of CDK13” value is listed as “no degradation”. In addition, the “degradation of CDK12” value at CDK12 (500 nM) is “no degradation”. Moreover, the “degradation of CDK9” value on CDK9 (500 nM, 6 hours) is “no degradation”. In test [1], the “serine 2 phosphorylation of PolII” value was “decreased serine 2 phosphorylation”.
As to `CC(C)(C)c1cnc(CSc2cnc(NC(=O)C3CCN(CC(=O)NCCOCCOCCOCCNc4cccc5c4C(=O)N(C4CCC(=O)NC4=O)C5=O)CC3)s2)o1` (centres unmarked) [Compound I-3, N-(5-(((5-(tert-butyl)oxazol-2-yl)methyl)thio)thiazol-2-yl)-1-(14-((2-(2,6-dioxopiperidin-3-yl)-1,3-dioxoisoindolin-4-yl)amino)-2-oxo-6,9,12-trioxa-3-azatetradecyl)piperidine-4-carboxamide], the values for the anti-proliferative effect result (in test [2]; in the test on Molt4 wild-type cells) were “not in the CRBN−/− cells; also recorded: anti-proliferation was no longer observed” and “showed antiproliferative effects; also recorded: caused anti-proliferation”, respectively. The “degradation of CDK13 on co-treatment with MG132” value at CDK13 (500 nM + 5 uM MG132, 6 hours) is listed as “abolished; also recorded: largely inhibited”. The “CDK13 levels over time” value at CDK13 (500 nM, 15 minutes to 6 hours) was “unaffected”. Moreover, the “degradation of CDK13” value on CDK13 (500 nM, 6 hours) is given as “partial degradation”. In addition, the “degradation of CDK13, various concentrations” value on CDK13 (about 312 nm to 5 uM, 6 hours) is reported as “CDK13 degradation at higher concentrations; also recorded: degradation also increased”. For the same compound, on CDK13 (with 5 μM MG132, 6 hours), the “degradation of CDK13, various concentrations, with MG132” value is given as “abolished”. Further, the “degradation of CDK12 on co-treatment with MG132” value at CDK12 (500 nM + 5 uM MG132, 6 hours) is given as “abolished; also recorded: largely inhibited”. In addition, the “CDK12 levels over time” value at CDK12 (500 nM, 15 minutes to 6 hours) is recorded as “unaffected”. For the same compound, the “degradation of CDK12” value at CDK12 (500 nM) is reported as “partial degradation”. Also, the “degradation of CDK9 on co-treatment with MG132” value at CDK9 (500 nM + 5 uM MG132, 6 hours) was “reduced; also recorded: largely inhibited”. For the same compound, the “CDK9 levels over time” value on CDK9 (500 nM, 15 minutes to 6 hours) is “decrease in CDK9 levels over time; also recorded: degradation of CDK9 increased with time of exposure”. The “degradation of CDK9” value at CDK9 (500 nM, 6 hours) is “complete degradation”. Also, the “degradation of CDK9, various concentrations” value on CDK9 (about 312 nm to 5 uM, 6 hours) was “specificity for CDK9 at lower concentrations; also recorded: degradation also increased”. The “degradation of CDK9, various concentrations, with MG132” value on CDK9 (with 5 μM MG132, 6 hours) is on record as “abolished degradation of CDK9”. Moreover, in test [1], the “serine 2 phosphorylation of PolII” value is “decreased serine 2 phosphorylation”.
